Data taken from patent publication US6458797B1, “Methods for remodeling neuronal and cardiovascular pathways” (Queen's University of Kingston, priority 1998, dated 2002).
Blank lines part the entries; values can stand above or below the molecule they belong to.

How the values were obtained:
[1] = test system: spontaneously hypertensive rats (SHR); assay: Left ventricle weight of SHR after 1 or 2 weeks of drug treatment; assay type: in vivo, rat; settings: for Left Ventricle Weight (g)/Body Weight (kg) Ratio: control 2.46 ± 0.08
Procedure: Following this treatment, structurally-based resistance to blood flow in the perfused penile vascular bed and hindlimb vascular bed models were measured using the methods detailed above. […] The animal hearts were excised and weighed.

[2] = test system: spontaneously hypertensive rats (SHR); assay: Structurally-based vascular resistance in perfused vascular bed of SHR after 1 or 2 weeks of drug treatment; assay type: in vivo, rat; settings: for Slope Flow Pressure: control 7.13 ± 0.63; for Maximum Constriction With Cocktail “Yield”: control 381 ± 21
Procedure: Penile perfusion preparations were made using the procedure established by Banting, J. D., et al., “Isolation and Perfusion of the Pudendal Vasculature in Male Rats. J Urol., 2: 587-590 (1995). A heated chamber served to maintain the ambient temperature and the entire preparation at 37-38° C. The perfusate was held in a reservoir and passed through a heating and a bubble trapping/mixing chamber connected to a single peristaltic pump (Minipuls 2 Pump, Gilson, Inc., 3000 W. Beltline Highway, Middleton, Wis. USA 53562). An injection port was located distal to the pump for the introduction of pharmacological agents to minimize dead volume. Drugs were administered via a Harvard Apparatus, Inc. infusion pump (Harvard Apparatus, Inc., 84 October Hill Road, Holliston, Mass. 01746). The perfusate was a Tyrode-dextran solution consisting of a mixture of 20 mg of KCI, 32.3mg of CaCl2.H2O, 5.1 mg of MgCl2.6H2O, 6.2 mg of NaH2PO4.2H2O, 155 mg of NaHCO3, 100 mg of glucose, and 800 mg of NaCl in each 100 mL of fluid. The solution was maintained at pH 7.4, and a temperature of 37-39° C., and oxygenated with 95% O2 and 5% CO2. The rats were anaesthetized (sodium pentobarbital 60 mg/kg body weight i.p.) and heparinized (1000 IU/kg, i.v.). The bilateral isolation of penile vasculature was achieved by ligating all of the branching arteries except for the pudendal; then the abdominal aorta was cannulated proximal to the iliac bifurcation with a single lumen catheter. The catheter was connected to the perfusion apparatus via a pressure transducer for arterial pressure recording. After sectioning the vena cava and spinal cord to remove venous resistance and to eliminate neural influences, a flow of perfusate (1 mL/min per kg body weight) through the abdominal cannula was initiated. The perfusion pressure was continuously recorded on a data acquisition system (MacLab, AD Instruments, Houston, Tex.). The perfusate was infused for twenty minutes to flush the penile vasculature of blood and obtain a stable pressure before the beginning of any experiment. Following this, sodium nitroprusside (20 μg/mL) was infused to induce maximum vasodilation. The flow rate-perfusion/pressure relationship was determined by measuring the pressure at minimum vascular resistance at flow rates of 0.5, 1.0, 2.0, 4.0 mL/min per kg of body weight. A cumulative α1-adrenoreceptor concentration-response curve to methoxamine (2.5, 5, 10, 25, 50 μg/mL was then generated. Each concentration of methoxamine was infused for a duration of 10 minutes, at which time a plateau was reached. Subsequently, a continuous injection of a cocktail containing a supramaximal concentration of vasoconstrictors (vasopressin, 20.5 μg/mL, angiotensin-II, 200 ng/mL; methoxamine, 64 μg/mL; Sigma, St. Louis, Mo., 63178) was given to ensure that maximum constrictor response that was not dependent upon the activation of a single receptor type was achieved. A second injection of the constrictor cocktail was administered to ensure the tissue “yield” was maximum constriction. […] At the end of the concentration-response relationship, the aorta was cut distal to the catheter, and a baseline flow-pressure curve was recorded again. This was done to ensure that pressure fell to zero and to account for any false pressure readings that may have resulted due to movement of the catheter during the experiment.
The hindlimb perfusion preparation was adopted from a technique originally designed by Folkow et al., Acta Physiol Scand., 80: 93-106 (1973), as modified by Adams et al., Hypertension, 14: 191-202 (1989). The perfusion experiment was performed as described above. Drugs were administered into the mixing chamber via a Harvard Apparatus infusion pump. The rats were anaesthetized (Inactin, 100 mg/kg of body weight, i.p.) and heparinized (1000 IU/kg of body weight, i.v.).

α1-adrenoreceptor [3] = assay: Hindlimb vascular bed perfusion, cumulative α1-adrenoreceptor concentration-response curve to methoxamine; design: species or system rat; settings: mean ± SD
Procedure: Male spontaneously hypertensive (SH) rats weighing between 246-313 g, and normotensive Sprague-Dawley (SD) rats weighing between 246-440 g were obtained from Charles River Laboratories (Montreal, Quebec, Canada). The animals were maintained in individual cages with a 12 hour light/12 hour dark cycle, and a room temperature of 22-24° C. They were provided with standard rodent chow and tap water ad libitum and were acclimated to the room for at least two days before the experiments. All procedures were carried out in accordance with the guidelines set out by the Canadian Council on Animal Care. The hindlimb perfusion preparation was adopted from a technique originally designed by Folkow et al., Acta Physiol Scand., 80: 93-106 (1973), as modified by Adams et al., Hypertension, 14: 191-202 (1989). The perfusion experiment was performed as described above. Drugs were administered into the mixing chamber via a Harvard Apparatus infusion pump. […] Following a midline abdominal incision, the abdominal aorta was cannulated proximal to the iliac bifurcation with a double lumen catheter (Storz, St Louis, Mo., USA), and the catheter was extended down the right common iliac artery. One lumen of the catheter was connected to the perfusion apparatus, while the other was connected to a pressure transducer for arterial pressure recording. […] A cumulative α1-adrenoreceptor concentration-response curve to methoxamine (0.5, 1, 2, 4, 8, 16, 32, 64 μg/mL) was then generated. […] Subsequently, a bolus injection of a cocktail containing a supramaximal concentration of vasoconstrictors was given as above. At the end of the concentration-response relationship, the iliac artery was cut distal to the catheter, and the flow pressure curve was monitored again. Flow rates for the hindlimb perfusion experiments were determined based on expected flow rates of exercising skeletal muscle at maximum dilation. […] All values in the figures and tables were expressed as mean ± standard deviation. Results comparing penile and hindlimb vasculature were analyzed using the Student's t-test. […]

α1-adrenoreceptor [4] = assay: Penile vascular bed perfusion, cumulative α1-adrenoreceptor concentration-response curve to methoxamine; design: species or system rat; settings: mean ± SD; for Slope Methoxamine: steepest slope of concentration-response curve
Procedure: Male spontaneously hypertensive (SH) rats weighing between 246-313 g, and normotensive Sprague-Dawley (SD) rats weighing between 246-440 g were obtained from Charles River Laboratories (Montreal, Quebec, Canada). The animals were maintained in individual cages with a 12 hour light/12 hour dark cycle, and a room temperature of 22-24° C. They were provided with standard rodent chow and tap water ad libitum and were acclimated to the room for at least two days before the experiments. All procedures were carried out in accordance with the guidelines set out by the Canadian Council on Animal Care.
Penile perfusion preparations were made using the procedure established by Banting, J. D., et al., “Isolation and Perfusion of the Pudendal Vasculature in Male Rats. J Urol., 2: 587-590 (1995). A heated chamber served to maintain the ambient temperature and the entire preparation at 37-38° C. The perfusate was held in a reservoir and passed through a heating and a bubble trapping/mixing chamber connected to a single peristaltic pump (Minipuls 2 Pump, Gilson, Inc., 3000 W. Beltline Highway, Middleton, Wis. USA 53562). An injection port was located distal to the pump for the introduction of pharmacological agents to minimize dead volume. Drugs were administered via a Harvard Apparatus, Inc. infusion pump (Harvard Apparatus, Inc., 84 October Hill Road, Holliston, Mass. 01746). The perfusate was a Tyrode-dextran solution consisting of a mixture of 20 mg of KCI, 32.3mg of CaCl2.H2O, 5.1 mg of MgCl2.6H2O, 6.2 mg of NaH2PO4.2H2O, 155 mg of NaHCO3, 100 mg of glucose, and 800 mg of NaCl in each 100 mL of fluid. The solution was maintained at pH 7.4, and a temperature of 37-39° C., and oxygenated with 95% O2 and 5% CO2. The rats were anaesthetized (sodium pentobarbital 60 mg/kg body weight i.p.) and heparinized (1000 IU/kg, i.v.). The bilateral isolation of penile vasculature was achieved by ligating all of the branching arteries except for the pudendal; then the abdominal aorta was cannulated proximal to the iliac bifurcation with a single lumen catheter. The catheter was connected to the perfusion apparatus via a pressure transducer for arterial pressure recording. […] The perfusion pressure was continuously recorded on a data acquisition system (MacLab, AD Instruments, Houston, Tex.). […] The flow rate-perfusion/pressure relationship was determined by measuring the pressure at minimum vascular resistance at flow rates of 0.5, 1.0, 2.0, 4.0 mL/min per kg of body weight. […] At the end of the concentration-response relationship, the aorta was cut distal to the catheter, and a baseline flow-pressure curve was recorded again. […]

[5] = SHR, enalapril 30 mg/kg per day, 2-week period of treatment, versus control
[6] = SHR-E1: enalapril 30 mg/kg per day, 1 week, n = 5
[7] = SHR-E2: enalapril 30 mg/kg per day, 2 weeks, n = 7
[8] = SHR-H: hydralazine 45 mg/kg per day, n = 7

SMILES: CCOC(=O)[C@H](CCc1ccccc1)N[C@@H](C)C(=O)N1CCC[C@H]1C(=O)O [enalapril]
decrease of left ventricular mass [1, 5]: 13.6%±3.2%
Left Ventricle Weight (g)/Body Weight (kg) Ratio [1, 6]: 2.17 ± 0.05 g/kg
Left Ventricle Weight (g)/Body Weight (kg) Ratio [1, 7]: 2.13 ± 0.08 g/kg
decrease of “yield” value [2, 5]: 12.1%±6.0%
Slope Flow Pressure [2, 6]: 6.10 ± 1.5
Maximum Constriction With Cocktail “Yield” [2, 6]: 358 ± 20 mm Hg
Slope Flow Pressure [2, 7]: 6.45 ± 1.31
Maximum Constriction With Cocktail “Yield” ([2]; SHR-E2: enalapril 30 mg/kg per day, 2 weeks, n = 7, vasopressin, angiotensin-II, methoxamine cocktail): 335 ± 23 mm Hg

SMILES: NNc1nncc2ccccc12 [hydralazine]
decrease of left ventricular weight ([1]; SHR, hydralazine 45 mg/kg per day, versus control, no significant effect): 3.7%±5.0%
Left Ventricle Weight (g)/Body Weight (kg) Ratio [1, 8]: 2.37 ± 0.12 g/kg
decrease of “yield” point ([2]; SHR, hydralazine 45 mg/kg per day, versus control): 7.3%±2.9%
Slope Flow Pressure [2, 8]: 6.63 ± 0.86
Maximum Constriction With Cocktail “Yield” [2, 8]: 353 ± 11 mm Hg

Maximum Constriction With Methoxamine (α1-adrenoreceptor [3]; SD, methoxamine 64 μg/mL): 191 ± 55 mm Hg
Slope Methoxamine (α1-adrenoreceptor [3]; SD, steepest slope of concentration-response curve): 3.0±0.99
Maximum Constriction With Methoxamine (α1-adrenoreceptor [3]; SHR, perfusion pressure at supramaximal methoxamine 64 μg/mL): 253±25 mm Hg
Maximum Constriction With Methoxamine (α1-adrenoreceptor [4]; SD (normotensive Sprague-Dawley), methoxamine 50 μg/mL): 171 ± 36 mm Hg
Slope Methoxamine (α1-adrenoreceptor [4]; SD): 2.03±0.68
Maximum Constriction With Methoxamine (α1-adrenoreceptor [4]; SHR, perfusion pressure at supramaximal methoxamine 50 μg/mL): 172±32 mm Hg
Slope Methoxamine (α1-adrenoreceptor [4]; SHR): 1.64±0.21
SMILES: COc1ccc(OC)c(C(O)C(C)N)c1 (centres unmarked) [methoxamine]
